Target: T1, His-PKC-theta (Homo sapiens, UniProt Q04759)
T1 construct: His; purchased Invitrogen
Assay: PKC-theta Assay (384-well time resolved fluorescence, IMAP TR-FRET)
Type: biochemical
Details: Table 2; read-out: Act. Level (IC50 in the PKC-theta Assay)
Procedure, shortened: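 Fam-labeled S6-derived peptide (200 nM) and 10 μM ATP were reacted with 142 pM enzyme for 2 h at room temperature in HEPES pH 7.6 buffer with MgCl2, DTT, Triton X-100, BSA and EDTA. The reaction was stopped with IMAP progressive binding reagent plus Tb donor, incubated overnight, then TR-FRET read.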

T1 sequence (Q04759 whole entry): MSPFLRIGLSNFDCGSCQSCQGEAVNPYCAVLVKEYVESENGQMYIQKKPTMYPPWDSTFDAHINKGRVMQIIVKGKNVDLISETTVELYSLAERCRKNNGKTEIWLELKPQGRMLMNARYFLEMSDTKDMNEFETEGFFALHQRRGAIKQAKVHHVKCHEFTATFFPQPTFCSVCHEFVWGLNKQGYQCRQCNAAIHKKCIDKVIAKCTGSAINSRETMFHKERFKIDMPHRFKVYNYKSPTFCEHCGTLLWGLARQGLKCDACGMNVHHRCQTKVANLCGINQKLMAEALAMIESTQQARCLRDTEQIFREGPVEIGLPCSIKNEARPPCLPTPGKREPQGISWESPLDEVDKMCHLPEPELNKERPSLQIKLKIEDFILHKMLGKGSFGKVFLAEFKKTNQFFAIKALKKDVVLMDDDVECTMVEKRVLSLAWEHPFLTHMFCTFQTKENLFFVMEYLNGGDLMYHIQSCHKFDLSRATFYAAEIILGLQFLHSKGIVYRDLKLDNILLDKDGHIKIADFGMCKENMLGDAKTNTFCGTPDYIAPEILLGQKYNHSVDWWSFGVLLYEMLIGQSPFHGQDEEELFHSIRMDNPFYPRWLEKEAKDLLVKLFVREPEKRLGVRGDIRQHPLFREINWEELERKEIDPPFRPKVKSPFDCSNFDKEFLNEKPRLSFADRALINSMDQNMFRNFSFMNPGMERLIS

IC50 [nM]	Structure (SMILES)
800 to 2000	CC1(C)[C@@H](O)C[C@H]1Nc1nc(NCCc2ccc(C#N)c(OC(F)(F)F)c2)ncc1C#N [Cmpd 143]
800 to 2000	CC1(C)C[C@H](Nc2nc(NCCc3ccc(C#N)c(OC(F)(F)F)c3)ncc2C#N)CC[C@@H]1O [Cmpd 144]
100 to 800	CC1(C)[C@@H](O)C[C@H]1Nc1nc(NCCc2ccc(C#N)c(Br)c2)ncc1C#N [Cmpd 145]
< 100	CC1(C)C[C@H](Nc2nc(NCCc3ccc(C#N)c(Br)c3)ncc2C#N)CC[C@@H]1O [Cmpd 146]
100 to 800	CC1(C)[C@@H](O)C[C@H]1Nc1nc(NCCc2ccc(C#N)c(F)c2)ncc1C#N [Cmpd 147]
100 to 800	CC1(C)C[C@H](Nc2nc(NCCc3ccc(C#N)c(F)c3)ncc2C#N)CC[C@@H]1O [Cmpd 148]
100 to 800	CC1(C)[C@@H](O)C[C@H]1Nc1nc(NCCc2ccccc2)ncc1C#N [Cmpd 149]
< 100	CC1(C)C[C@H](Nc2nc(NCCc3ccccc3)ncc2C#N)CC[C@@H]1O [Cmpd 150]
< 100	CC(F)(F)COc1ccc(CCNc2ncc(C#N)c(N[C@@H]3CC[C@H](O)C(C)(C)C3)n2)cc1 [Cmpd 151]
800 to 2000	CC(F)(F)COc1ccccc1CCNc1ncc(C#N)c(N[C@@H]2CC[C@H](O)C(C)(C)C2)n1 [Cmpd 152]
800 to 2000	CC1(C)C[C@H](Nc2nc(NCCc3ccc(C(=O)O)cc3)ncc2C#N)CC[C@@H]1O [Cmpd 153]
100 to 800	CC1(C)C[C@H](Nc2nc(NCCc3ccc(C(N)=O)cc3)ncc2C#N)CC[C@@H]1O [Cmpd 154]
100 to 800	CC(F)(F)COc1cccc(CCNc2ncc(C#N)c(N[C@@H]3CC[C@H](O)C(C)(C)C3)n2)c1 [Cmpd 155]
100 to 800	CC1(C)C[C@H](Nc2nc(NCCc3ccccc3C#N)ncc2C#N)CC[C@@H]1O [Cmpd 156]
100 to 800	CC1(C)[C@@H](Nc2nc(NCCc3cccc(Cl)c3)ncc2C#N)C[C@@H]1N [Cmpd 157]
800 to 2000	CC1(C)[C@H](N)C[C@H]1Nc1nc(NCCc2cccc(Cl)c2)ncc1C#N [Cmpd 158]
< 100	CC1(C)[C@H](N)C[C@@H]1Nc1nc(NCCc2cccc(Cl)c2)ncc1C#N [Cmpd 159]
800 to 2000	CC1(C)[C@@H](N)C[C@H]1Nc1nc(NCCc2cccc(Cl)c2)ncc1C#N [Cmpd 160]
100 to 800	CC1(C)C[C@H](Nc2nc(NCCc3ccc(C#N)cc3)ncc2C(F)(F)F)CC[C@@H]1O [Cmpd 161]
100 to 800	CC1(C)[C@@H](Nc2nc(NCCc3cccc(Cl)c3)ncc2C#N)C[C@@H]1C(N)=O [Cmpd 162]

IC50 [nM]	Structure (SMILES)
2000 to 10000	CC1(C)[C@H](Nc2nc(NCCc3cccc(Cl)c3)ncc2C#N)C[C@H]1C(N)=O [Cmpd 163]
100 to 800	CC1(C)[C@@H](Nc2nc(NCCc3cccc(Cl)c3)ncc2C#N)C[C@H]1C(N)=O [Cmpd 164]
< 100	CC1(C)[C@@H](C(N)=O)C[C@H]1Nc1nc(NCCc2cccc(Cl)c2)ncc1C#N [Cmpd 165]
800 to 2000	CC1(C)C[C@H](Nc2nc(NCCc3cccc(C#N)c3)ncc2C#N)CC[C@@H]1O [Cmpd 166]
100 to 800	Cc1nnnn1-c1ccc(CCNc2ncc(C#N)c(N[C@@H]3CC[C@H](O)C(C)(C)C3)n2)cc1 [Cmpd 167]
2000 to 10000	Cc1nnnn1-c1ccccc1CCNc1ncc(C#N)c(N[C@@H]2CC[C@H](O)C(C)(C)C2)n1 [Cmpd 168]
100 to 800	Cc1nnnn1-c1cccc(CCNc2ncc(C#N)c(N[C@@H]3CC[C@H](O)C(C)(C)C3)n2)c1 [Cmpd 169]
< 100	CC1(C)C[C@H](Nc2nc(NCCc3ccc(OCC(F)F)cc3)ncc2C#N)CC[C@@H]1O [Cmpd 170]
< 100	CC1(C)C[C@H](Nc2nc(NCCc3ccc(OCCF)cc3)ncc2C#N)CC[C@@H]1O [Cmpd 171]
100 to 800	CC1(C)C[C@H](Nc2nc(NCCc3cccc(S(N)(=O)=O)c3)ncc2C#N)CC[C@@H]1O [Cmpd 172]
100 to 800	CC1(C)C[C@H](Nc2nc(NCCc3cccc(S(C)(=O)=O)c3)ncc2C#N)CC[C@@H]1O [Cmpd 173]
100 to 800	CC1(C)C[C@H](Nc2nc(NCCc3ccc(S(=O)(=O)N4CCCC4)cc3)ncc2C#N)CC[C@@H]1O [Cmpd 174]
100 to 800	CN(C)S(=O)(=O)c1ccc(CCNc2ncc(C#N)c(N[C@@H]3CC[C@H](O)C(C)(C)C3)n2)cc1 [Cmpd 175]
100 to 800	CC1(C)C[C@H](Nc2nc(NCCc3ccc(S(=O)(=O)N4CCC4)cc3)ncc2C#N)CC[C@@H]1O [Cmpd 176]
100 to 800	CC1(C)C[C@H](Nc2nc(NCCc3ccc(S(=O)(=O)N4CCOCC4)cc3)ncc2C#N)CC[C@@H]1O [Cmpd 177]
100 to 800	CC1(C)C[C@H](Nc2nc(NCCc3ccc(S(=O)(=O)N4CCCCC4)cc3)ncc2C#N)CC[C@@H]1O [Cmpd 178]
100 to 800	CN1CCN(S(=O)(=O)c2ccc(CCNc3ncc(C#N)c(N[C@@H]4CC[C@H](O)C(C)(C)C4)n3)cc2)CC1 [Cmpd 179]
< 100	CC1(C)C[C@H](Nc2nc(NCCc3ccc(-n4ccnc4)c(Cl)c3)ncc2C#N)CC[C@@H]1O [Cmpd 180]
< 100	CC1(C)C[C@H](Nc2nc(NCCc3ccc(-n4cccn4)c(Cl)c3)ncc2C#N)CC[C@@H]1O [Cmpd 181]

Same assay, conditions: read-out: Act. Level (IC50 in the PKC-theta Assay)

IC50 [nM]	Structure (SMILES)
800 to 2000	CCc1ncncc1CNc1ncc(C#N)c(N[C@H]2C[C@H](O)C2(C)C)n1 [Cmpd 142]
800 to 2000	CC1(C)[C@@H](Nc2nc(NCc3cnccc3C(F)(F)F)ncc2C(F)(F)F)C[C@@H]1O [Cmpd 143]
800 to 2000	CC1(C)[C@H](CO)C[C@@H]1Nc1nc(NCc2c[n+]([O-])ccc2C(F)(F)F)ncc1C#N [Cmpd 145]
800 to 2000	Cc1cc(C(F)(F)F)c(CNc2ncc(C#N)c(N[C@H]3CC[C@@](C)(O)CC3)n2)c[n+]1[O-] [Cmpd 146]
100 to 800	CC1(C)C[C@H](Nc2nc(NCCc3cccc4cccnc34)ncc2C#N)CC[C@@H]1O [Cmpd 147]
2000 to 10000	Cc1[nH]c2ccc(C#N)cc2c1CCNc1ncc(C#N)c(N[C@H]2CC[C@@H](O)CC2)n1 [Cmpd 148]
2000 to 10000	Cc1[nH]c2c(F)cc(F)cc2c1CCNc1ncc(C#N)c(N[C@H]2CC[C@@H](O)CC2)n1 [Cmpd 149]
2000 to 10000	N#Cc1cnc(NCCc2ccc3ccccc3n2)nc1N[C@H]1CC[C@@H](O)CC1 [Cmpd 150]
2000 to 10000	N#Cc1cnc(NCCc2ncccc2C(F)(F)F)nc1N[C@H]1CC[C@@H](O)CC1 [Cmpd 151]
2000 to 10000	Cc1cnccc1CCNc1ncc(C#N)c(N[C@H]2CC[C@@H](O)CC2)n1 [Cmpd 152]
< 100	CC(F)(F)COc1ncncc1CNc1ncc(C#N)c(N[C@H]2CC[C@@H](O)CC2)n1 [Cmpd 153]
100 to 800	N#Cc1cnc(NCCc2c[nH]c3ccccc23)nc1N[C@H]1CC[C@@H](O)CC1 [Cmpd 154]
100 to 800	N#Cc1cnc(NCCC2C(=O)Nc3ccccc32)nc1N[C@H]1CC[C@@H](O)CC1 (stereo partly shown) [Cmpd 155]
800 to 2000	CC(F)(F)COc1ncncc1CNc1ncc(C#N)c(NC23CCC(O)(CC2)CC3)n1 [Cmpd 156]
100 to 800	C[C@@H]1CC[C@@H](Nc2nc(NCc3cncnc3OCC(C)(F)F)ncc2C#N)C[C@H]1O [Cmpd 157]
100 to 800	CC1(C)C[C@H](Nc2nc(NCCC3C(=O)Nc4ccccc43)ncc2C#N)CC[C@H]1O (stereo partly shown) [Cmpd 158]
100 to 800	CC1(C)C[C@H](Nc2nc(NCc3cncnc3C(F)(F)F)ncc2C#N)CC[C@H]1O [Cmpd 159]
< 100	CC(F)(F)COc1ncncc1CNc1ncc(C#N)c(N[C@H]2CC[C@@](C)(C(N)=O)CC2)n1 [Cmpd 160]
2000 to 10000	N#Cc1cnc(NCCC2(O)C(=O)Nc3ccccc32)nc1N[C@H]1CC[C@@H](O)CC1 (stereo partly shown) [Cmpd 162]

IC50 [nM]	Structure (SMILES)
2000 to 10000	N#Cc1ccc2[nH]cc(CCNc3ncc(C#N)c(N[C@H]4CC[C@@H](O)CC4)n3)c2c1 [Cmpd 163]
800 to 2000	COc1ccc2c(CCNc3ncc(C#N)c(N[C@H]4CC[C@@H](O)CC4)n3)c[nH]c2c1 [Cmpd 164]
800 to 2000	N#Cc1cnc(NCCc2c[nH]c3cc(F)ccc23)nc1N[C@H]1CC[C@@H](O)CC1 [Cmpd 165]
800 to 2000	COc1cccc2c(CCNc3ncc(C#N)c(NC4CCC(O)CC4)n3)c[nH]c12 (stereo not shown) [Cmpd 166]
100 to 800	Cc1[nH]c2c(F)cc(F)cc2c1CCNc1ncc(C#N)c(N[C@@H]2CC[C@H](O)C(C)(C)C2)n1 [Cmpd 167]
100 to 800	Cc1[nH]c2ccccc2c1CCNc1ncc(C#N)c(N[C@@H]2CC[C@H](O)C(C)(C)C2)n1 [Cmpd 168]
100 to 800	CC1(C)C[C@H](Nc2nc(NCCc3c[nH]c4ccc(Cl)cc34)ncc2C#N)CC[C@@H]1O [Cmpd 169]
100 to 800	CC1(C)C[C@H](Nc2nc(NCCc3c[nH]c4cc(OC(F)(F)F)ccc34)ncc2C#N)CC[C@@H]1O [Cmpd 170]
2000 to 10000	CC1(C)C[C@H](Nc2nc(NCCc3c[nH]c4ccc(OC(F)(F)F)cc34)ncc2C#N)CC[C@@H]1O [Cmpd 171]
100 to 800	Cc1cccc2c(CCNc3ncc(C#N)c(N[C@@H]4CC[C@H](O)C(C)(C)C4)n3)c[nH]c12 [Cmpd 172]
100 to 800	CC1(C)C[C@H](Nc2nc(NCCc3c[nH]c4cc(Cl)ccc34)ncc2C#N)CC[C@@H]1O [Cmpd 173]
800 to 2000	Cc1ccc2c(CCNc3ncc(C#N)c(N[C@@H]4CC[C@H](O)C(C)(C)C4)n3)c[nH]c2c1 [Cmpd 174]
100 to 800	COc1cccc2[nH]cc(CCNc3ncc(C#N)c(N[C@@H]4CC[C@H](O)C(C)(C)C4)n3)c12 [Cmpd 175]
800 to 2000	CC1(C)C[C@H](Nc2nc(NCCc3n[nH]c4ccccc34)ncc2C#N)CC[C@@H]1O [Cmpd 176]
100 to 800	COc1cccc2c(CCNc3ncc(C#N)c(N[C@@H]4CC[C@H](O)C(C)(C)C4)n3)c[nH]c12 [Cmpd 177]
< 100	N#Cc1cnc(NCCc2c[nH]c3ccc(F)cc23)nc1N[C@H]1CC[C@@H](C(N)=O)CC1 [Cmpd 178]
< 100	N#Cc1cnc(NCCC2C(=O)Nc3ccccc32)nc1N[C@H]1CC[C@@H](C(N)=O)CC1 (stereo partly shown) [Cmpd 179]
< 100	CCc1ccc2c(c1)C(CCNc1ncc(C#N)c(N[C@H]3CC[C@@H](C(N)=O)CC3)n1)C(=O)N2 (stereo partly shown) [Cmpd 180]

Source: US9783505B2, “Substituted diaminopyrimidyl compounds, compositions thereof, and methods of treatment therewith” (Signal Pharmaceuticals, LLC, priority 2013, dated 2017)
